Values after ≈ are worked out from the molar mass of the structure shown.
Columns and labels:
[1] = system: Micrococcus luteus; assay: Antibacterial activity against Micrococcus luteus SCSIO ML01 by broth microdilution method; type: functional
[2] = system: Bacillus subtilis; assay: Antibacterial activity against Bacillus subtilis SCSIO BS01 by broth microdilution method; type: functional

| SMILES | MIC [1] [µg/mL] | MIC [2] [µg/mL] |
| --- | --- | --- |
| CCc1ccc(CC(C)C)c(=O)o1 | 32 (≈ 178 µM) | 64 (≈ 355 µM) |
| CC(C)Cc1ccc(C(C)O)oc1=O (racemic) | 16 (≈ 81.5 µM) |  |
| CCc1ccc(CC(C)(C)O)c(=O)o1 | 32 (≈ 163 µM) |  |

Other lines, results leading:

| MIC [1] [µg/mL] | MIC [2] [µg/mL] | SMILES |
| --- | --- | --- |
|  | 64 (≈ 385 µM) | CC[C@@H](C)c1ccc(C)c(=O)o1 |
| 32 (≈ 178 µM) |  | CCc1ccc([C@H](C)CC)oc1=O |
